This is an account of results in article PMC3170264 (Retrovirology, 2011).

The target of one test is T1, HIV-2 N1 IN (Human immunodeficiency virus type 2 subtype B, UniProt Q89928, I1218V/I1301V/I1372V/M1455R/N1185G/N1438H/R1202K/R1392Q/T1348V/T1383A/V1460M).
T1 construct: His-tag (pET-15b) (N); made in house; host or cells: Escherichia coli BL21-CodonPlus (DE3)-RIPL
T1 sequence (Q89928 1169-1464 N1185G/R1202K/I1218V/I1301V/T1348V/I1372V/T1383A/R1392Q/N1438H/M1455R/V1460M limits assumed): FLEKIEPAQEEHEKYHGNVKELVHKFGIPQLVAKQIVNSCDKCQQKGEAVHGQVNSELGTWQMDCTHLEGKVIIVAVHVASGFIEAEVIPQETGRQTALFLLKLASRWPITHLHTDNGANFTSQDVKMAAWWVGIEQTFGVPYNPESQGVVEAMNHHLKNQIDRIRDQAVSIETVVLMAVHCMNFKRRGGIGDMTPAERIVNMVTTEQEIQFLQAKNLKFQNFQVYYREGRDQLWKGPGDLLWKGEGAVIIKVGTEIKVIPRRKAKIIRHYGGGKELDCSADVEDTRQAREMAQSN
The test can be described thus: strand transfer inhibition, IN from clinical isolate N1 (wild-type reference). It counts as biochemical. The note with it: IN from RAL-naive patient N1; 200 nM IN; 37°C; Mg2+. As for the experimental part: (§1) The ST reaction was performed using a ^32P-labeled oligonucleotide mimicking the preprocessed substrate. Drug concentrations are indicated above each lane. […] Activity is expressed as a % of control without drug. Experiments were repeated two times.
(§2) The HIV-2 ODN substrate sequences were: UA: 5'-[…]-3'; U5B: 5'-[…]-3'; U5B-2: 5'-[…] […]-3'.

In the next test the target is T2, HIV-2 N3 IN (Human immunodeficiency virus type 2 subtype B, UniProt Q89928, A1457T/D1293E/D1331N/F1194Y/I1218V/I1301V/I1428V/K1172N/M1455R/N1185G/N1438H/Q1389K/R1202K/R1392Q/T1348A/T1383A).
T2 construct: His-tag (pET-15b) (N); made in house; host or cells: Escherichia coli BL21-CodonPlus (DE3)-RIPL
T2 sequence (Q89928 1169-1461 K1172N/N1185G/F1194Y/R1202K/I1218V/D1293E/I1301V/D1331N/T1348A/T1383A/Q1389K/R1392Q/I1428V/N1438H/M1455R/A1457T): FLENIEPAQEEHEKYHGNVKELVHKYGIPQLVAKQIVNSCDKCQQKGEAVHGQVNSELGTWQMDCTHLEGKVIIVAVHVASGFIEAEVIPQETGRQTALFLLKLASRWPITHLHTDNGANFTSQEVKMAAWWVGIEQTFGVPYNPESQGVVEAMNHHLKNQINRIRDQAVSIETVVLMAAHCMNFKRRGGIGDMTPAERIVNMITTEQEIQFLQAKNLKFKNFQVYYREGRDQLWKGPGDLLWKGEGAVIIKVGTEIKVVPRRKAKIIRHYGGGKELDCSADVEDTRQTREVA
The test can be described thus: strand transfer inhibition, IN from clinical isolate N3. It counts as biochemical. The note with it: IN from RAL-naive patient N3; 200 nM IN; 37°C; Mg2+. As to the method: as §1, §2

For another test, the target named is T3, HIV-2 IN Q148R (Human immunodeficiency virus type 2 subtype B, UniProt Q89928, I1218V/I1301V/I1372V/M1455R/N1185G/N1438H/Q1316R/R1202K/R1392Q/T1348V/T1383A/V1460M).
T3 construct: His-tag (pET-15b) (N); made in house; host or cells: Escherichia coli BL21-CodonPlus (DE3)-RIPL
T3 sequence (Q89928 with tags, fused parts or gaps N1185G/R1202K/I1218V/I1301V/Q1316R/T1348V/I1372V/T1383A/R1392Q/N1438H/M1455R/V1460M): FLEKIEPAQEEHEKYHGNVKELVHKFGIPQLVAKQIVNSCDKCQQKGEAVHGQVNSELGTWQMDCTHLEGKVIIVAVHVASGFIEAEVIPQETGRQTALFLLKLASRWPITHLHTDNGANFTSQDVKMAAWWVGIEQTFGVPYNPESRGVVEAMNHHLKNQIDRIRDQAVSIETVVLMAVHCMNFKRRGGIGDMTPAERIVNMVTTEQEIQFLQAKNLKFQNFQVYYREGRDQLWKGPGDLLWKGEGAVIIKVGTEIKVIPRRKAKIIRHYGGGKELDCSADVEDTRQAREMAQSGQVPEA
The test can be described thus: susceptibility to RAL, site-directed mutant in N1 background. Format: biochemical. Particulars: preliminary studies with high protein concentrations.
Description: Primer 1: N1, N2, T1, T2, 5'-[…]-3'; N3, 5'-[…] […]-3'; T3-T7, 5'-[…]-3'. Primers 2: N1, 5'-[…]-3'; N2, 5'-[…] […]-3'; N3, 5'-[…] C-3'; T1, T2, 5'-[…]-3'; T3-T7, 5'-GGATC […] -3'.
as §2

In the next test the target is HIV-2 IN E92Q (Human immunodeficiency virus type 2 subtype B, UniProt Q89928, E1260Q/I1218V/I1301V/I1372V/M1455R/N1185G/N1438H/R1202K/R1392Q/T1348V/T1383A/V1460M). The note with it: E92Q in N1 background; 200 nM IN. As to the method: (§3) Mutations were introduced in the HIV-2 N1 background by mutagenesis. […] Activity is expressed as a % of control without drug. Experiments were performed two times.
(§4) The IN coding sequences from the viruses isolated from the plasma of HIV-2-infected patients N1 to N3 and T1 to T7 were amplified by PCR and sequenced according to a previously described procedure. PCR products corresponding to the entire IN sequence were amplified again with the following specific primers containing NdeI and BamH I restriction sites at their 5' ends. Primer 1: N1, N2, T1, T2, 5'-[…]-3'; N3, 5'-[…]-3'; T3-T7, 5'-[…]-3'. Primers 2: N1, 5'-[…]-3'; N2, 5'-[…]-3'; N3, 5'-[…] The amplicons were then ligated into the TA cloning plasmid pGEM-T easy (Promega, Madison, USA). Single (E92Q, T97A, G140S, Q148R, Y143C, N155H) and double (G140S/Q148R, Y143C/N155H, E92Q/Y143C and T97A/Y143C) mutations were introduced into the HIV-2 wild-type N1 sequence by mutagenesis using the QuickChange II site-directed mutagenesis kit (Agilent Technologies, Santa Clara, USA) according to the manufacturer instructions. NdeI - BamH fragments covering the IN coding sequence were then inserted into the expression vector pET-15b.
(§5) The activity of wild-type and mutated INs was determined in vitro, as previously described. Briefly, oligonucleotides (ODN) mimicking the end of the U5 long terminal repeat of the viral genome were radiolabeled with T4 polynucleotide kinase (Biolabs, Ipswich, USA) and [γ-^32P] ATP (3,000 Ci/mmol) (Amersham, GE Healthcare, USA), then purified on a Sephadex G-10 column (GE Healthcare, USA). Double-stranded ODNs were obtained by mixing equimolar amounts of complementary strands in the presence of 100 mM NaCl.

The next test has as its target HIV-2 IN G140S/Q148R (Human immunodeficiency virus type 2 subtype B, UniProt Q89928, G1308S/I1218V/I1301V/I1372V/M1455R/N1185G/N1438H/Q1316R/R1202K/R1392Q/T1348V/T1383A/V1460M). Particulars: G140S/Q148R in N1 background; 200 nM IN. As to the method:
as §3, §4, §5

For a further test, the target named is T4, HIV-2 IN (N1 to N3) (Human immunodeficiency virus type 2 subtype B, UniProt Q89928, I1218V/I1301V/I1372V/M1455R/N1185G/N1438H/R1202K/R1392Q/T1348V/T1383A/V1460M).
T4 construct: His-tag (pET-15b) (N); made in house; host or cells: Escherichia coli BL21-CodonPlus (DE3)-RIPL
T4 sequence (Q89928 1169-1464 N1185G/R1202K/I1218V/I1301V/T1348V/I1372V/T1383A/R1392Q/N1438H/M1455R/V1460M limits assumed): T1 sequence (Q89928 1169-1464 N1185G/R1202K/I1218V/I1301V/T1348V/I1372V/T1383A/R1392Q/N1438H/M1455R/V1460M limits assumed)
Kind of test: 3'-processing inhibition, INs from clinical isolates N1 to N3. Format: biochemical. Particulars: at concentrations up to 1 μM; data not shown. As for the experimental part:
as §5

pIC50: −log10 of the molar value.

For orientation: pIC50 means −log10 of the IC50, conventionally taken in molar units. A high value points to a small IC50.

On to `Cc1nnc(C(=O)NC(C)(C)c2nc(C(=O)NCc3ccc(F)cc3)c(O)c(=O)n2C)o1` [RAL, raltegravir], for which the pIC50 was 7.64 against HIV-2 N1 IN and 7.32 at HIV-2 N3 IN. Moreover, on HIV-2 IN Q148R, the “susceptibility to RAL” value is recorded as “not susceptible”. Moreover, the results for the “resistance to RAL, strand transfer” value on HIV-2 IN E92Q and at HIV-2 IN G140S/Q148R were “did not confer significant resistance” and “highly resistant”, respectively. Further, the “effect on 3' processing in vitro” value on HIV-2 IN (N1 to N3) was “no significant effect”.
